Data as given in US8609083B1, “Method for controlling fungal pathogen with bacterial metabolite” (The United States of America, as represented by the …, priority 2007, dated 2013).

Test system: F. effusum
Assay: Suppression of F. effusum sporulation on pecan terminal shoots
Assay type: in vivo, Fusicladosporium effusum
Conditions: 72 hours at 25° C.; for suppression of F. effusum sporulation, Abbott's formula relative to the acetone control: undiluted metabolites or fungicide products
Procedure: Dormant twigs with spore lesion constitute a primary source of scab infestation in pecan orchards. Scab disbursal via twig lesion sporulation occurs in early spring when temperatures are optimal. […] The shoots were selected for uniformity in diameter, cut into 5 cm segments, and placed into 1.5×10 cm test tubes.
Pecan shoots were sonicated for 30 minutes in 6 ml of 1% TWEEN 20 solution (polyoxyehtylene (20) sorbitan monolaurate). The number of spores released per lesion was counted via a hemocytometer. […]. A portion of the shoots were sonicated and counted prior to exposure to fungicidal treatments to verify that the shoots had not sporulated. The initial shoots lesions were designated as the baseline treatment.
Shoots were exposed to the following fungicidal treatments: undiluted metabolites derived from either P. luminescens (Hb) or X. bovienii (SN), and three chemical fungicide products used for control of F. effusum, i.e., dodine (Dodine 65W, 65% active ingredient, wettable powder, Platte Chemical Co. Greeley, Colo.), fenbuconazole (ENABLE 2F, 240 grams/liter active ingredient, flowable, Dow AgroSciences, Indianapolis Ind.), and triphenyltin hydroxide (SUPERTIN, 80% active ingredient, wettable powder, Griffin L. L. C., Valdosta, Ga.). The bacteria P. luminescens (Hb) was isolated from Heterorhabditis bacteriophora Poinar. The bacteria X. bovienii (SN) was isolated from Steinernema feltiae (Filipjev).
The shoots were also exposed to a water control and acetone control. Acetone was used as a solvent for the metabolites. The treatments were applied using an airbrush sprayer. The shoots were incubated at 25° C. for 72 hours, and exposed to sonification and quantification of spores. Ten replicate shoots for each treatment and the experiment was repeated once.

| Structure (SMILES) | suppression of F. effusum sporulation, Abbott's formula relative to the acetone control [%] | sporulation of F. effusum on pecan shoots relative to the acetone or water control (FIG. 3) |
| --- | --- | --- |
| CCCCCCCCCCCCNC(=N)N [dodine] | 49.6 | – |
| N#CC(CCc1ccc(Cl)cc1)(Cn1cncn1)c1ccccc1 (stereo not drawn) [fenbuconazole] | 80.4 | – |
| [OH][Sn]([c]1ccccc1)([c]1ccccc1)[c]1ccccc1 [triphenyltin hydroxide] | – | No effect was detected |
